Source: ChEMBL document CHEMBL1641531, “Receptor activity and conformational analysis of 5'-halogenated resiniferatoxin analogs as TRPV1 ligands” (Bioorg Med Chem Lett, 2011)

Columns and labels:
[1] = molecular target: T1, Transient receptor potential cation channel subfamily V member 1 (Rattus norvegicus, UniProt O35433); test: (§1) Antagonist activity at rat TRPV1 expressed in CHO cells assessed as response to capsaicin-stimulated 45Ca2+ uptake; type: functional, cell-based
[2] = molecular target: T1, Transient receptor potential cation channel subfamily V member 1; test: Displacement of [3H]RTX from rat […] expressed in CHO cells by competitive binding assay; type: cell-based
[3] = molecular target: T1, Transient receptor potential cation channel subfamily V member 1; test: Agonist activity at rat TRPV1 expressed in CHO cells assessed as 45Ca2+ uptake; type: functional, cell-based
[4] = molecular target: Transient receptor potential cation channel subfamily V member 1 (Rattus norvegicus) (UniProt O35433); test: Agonist activity at rat TRPV1 expressed in CHO cells assessed as 45Ca2+ uptake relative to capsaicin; type: functional, cell-based
Sequence of Transient receptor potential cation channel subfamily V member 1 (Rattus norvegicus) (O35433 whole entry): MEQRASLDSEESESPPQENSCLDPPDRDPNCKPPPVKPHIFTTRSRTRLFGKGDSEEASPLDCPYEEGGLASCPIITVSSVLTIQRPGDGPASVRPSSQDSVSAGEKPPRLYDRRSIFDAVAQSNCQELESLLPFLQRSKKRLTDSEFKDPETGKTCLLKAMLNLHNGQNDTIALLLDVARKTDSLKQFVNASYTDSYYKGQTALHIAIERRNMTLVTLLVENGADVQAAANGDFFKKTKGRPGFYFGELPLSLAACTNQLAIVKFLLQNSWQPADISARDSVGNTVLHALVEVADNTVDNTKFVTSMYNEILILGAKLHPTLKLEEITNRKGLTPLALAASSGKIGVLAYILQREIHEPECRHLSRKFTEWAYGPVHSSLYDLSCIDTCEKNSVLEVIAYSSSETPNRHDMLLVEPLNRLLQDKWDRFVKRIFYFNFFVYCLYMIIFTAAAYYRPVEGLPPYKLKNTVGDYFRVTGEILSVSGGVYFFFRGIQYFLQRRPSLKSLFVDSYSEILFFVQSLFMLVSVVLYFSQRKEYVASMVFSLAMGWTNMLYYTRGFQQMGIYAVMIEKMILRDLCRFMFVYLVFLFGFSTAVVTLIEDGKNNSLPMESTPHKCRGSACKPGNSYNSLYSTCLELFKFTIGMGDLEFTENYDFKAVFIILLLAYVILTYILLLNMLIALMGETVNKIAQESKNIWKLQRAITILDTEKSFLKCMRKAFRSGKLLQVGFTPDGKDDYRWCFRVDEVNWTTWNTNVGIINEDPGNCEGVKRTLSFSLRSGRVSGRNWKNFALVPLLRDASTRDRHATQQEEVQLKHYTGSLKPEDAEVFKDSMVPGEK

[5] = molecular target: Transient receptor potential cation channel subfamily V member 1 (Rattus norvegicus) (UniProt O35433); test: as §1; type: functional, cell-based; design: scale not given: the % may be the effect or the level left

T1 sequence (O35433 whole entry): as above

SMILES	Ki ([1]; cho)	Ki [2] [nM]	EC50 ([3]; read-out: EC50) [nM]	Activity [4] [%]	Activity [5] [%]	Ki ([1]; read-out: Ki) [nM]	EC50 ([3]; cho)
C=C(C)[C@@]12C[C@@H](C)C34OC(Cc5ccccc5)(OC1[C@@H]3C=C(COC(=O)Cc1cc(F)c(N)c(OC)c1)C[C@]1(O)C(=O)C(C)=C[C@@H]41)O2 (stereo partly specified)	Not Active	0.7	1.14	–	–	–	–
C=C(C)[C@@]12C[C@@H](C)C34OC(Cc5ccccc5)(OC1[C@@H]3C=C(COC(=O)Cc1cc(Br)cc(Br)c1)C[C@]1(O)C(=O)C(C)=C[C@@H]41)O2 (stereo partly specified)	Not Active	110	1070	–	–	–	–
C=C(C)[C@@]12C[C@@H](C)C34OC(Cc5ccccc5)(OC1[C@@H]3C=C(COC(=O)Cc1cc(Cl)c(O)c(OC)c1)C[C@]1(O)C(=O)C(C)=C[C@@H]41)O2 (stereo partly specified)	Not Active	1.03	5.7	–	–	–	–
C=C(C)[C@@]12C[C@@H](C)C34OC(Cc5ccccc5)(OC1[C@@H]3C=C(COC(=O)Cc1cc(Br)c(OC(C)=O)c(OC)c1)C[C@]1(O)C(=O)C(C)=C[C@@H]41)O2 (stereo partly specified)	–	0.3	–	37	30	–	–
C=C(C)[C@@]12C[C@@H](C)C34OC(Cc5ccccc5)(OC1[C@@H]3C=C(COC(=O)Cc1cc(Cl)c(N)c(OC)c1)C[C@]1(O)C(=O)C(C)=C[C@@H]41)O2 (stereo partly specified)	–	0.85	–	34	56	–	–
C=C(C)[C@@]12C[C@@H](C)C34OC(Cc5ccccc5)(OC1[C@@H]3C=C(COC(=O)Cc1cc(Br)c(O)c(OC)c1)C[C@]1(O)C(=O)C(C)=C[C@@H]41)O2 (stereo partly specified)	–	0.17	–	19	–	7.2	–
C=C(C)[C@]12C[C@@H](C)[C@@]34O[C@](Cc5ccccc5)(O[C@@H]1[C@@H]3C=C(COC(=O)Cc1ccc(O)c(OC)c1)C[C@]1(O)C(=O)C(C)=C[C@@H]41)O2 [RESINIFERATOXIN]	Not Active	–	–	–	–	–	–
C=C(C)[C@@]12C[C@@H](C)C34OC(Cc5ccccc5)(OC1[C@@H]3C=C(COC(=O)Cc1cc(Br)c(N)c(OC)c1)C[C@]1(O)C(=O)C(C)=C[C@@H]41)O2 (stereo partly specified)	–	1.99	–	–	–	2.81	Not Active
C=C(C)[C@@]12C[C@@H](C)C34OC(Cc5ccccc5)(OC1[C@@H]3C=C(COC(=O)Cc1cc(I)c(O)c(OC)c1)C[C@]1(O)C(=O)C(C)=C[C@@H]41)O2 (stereo partly specified)	–	0.61	–	–	–	12.2	Not Active
C=C(C)[C@@]12C[C@@H](C)C34OC(Cc5ccccc5)(OC1[C@@H]3C=C(COC(=O)Cc1cc(F)c(O)c(OC)c1)C[C@]1(O)C(=O)C(C)=C[C@@H]41)O2 (stereo partly specified)	Not Active	0.26	1.88	–	–	–	–
C=C(C)[C@@]12C[C@@H](C)C34OC(Cc5ccccc5)(OC1[C@@H]3C=C(COC(=O)Cc1ccc(N)c(OC)c1)C[C@]1(O)C(=O)C(C)=C[C@@H]41)O2 (stereo partly specified)	Not Active	0.13	0.46	–	–	–	–
